Data reported in patent publication US6331555A, “Treatment of platelet derived growth factor related disorders such as cancers” (priority 1999, dated 2001).
“And” between values parts separate entries of the source, which are not always exact repeats. Identical values can stand only once. Like-named read-outs stand apart in the source and are kept apart here. One block for each compound: values may come before it.

Key:
[1] = biological target: T1, PDGF-R (U1242) (Homo sapiens, UniProt P09619); test: U1242 kinase (PDGF-R activity); assay type: cell-based
T1 construct: U1242 (PDGF-β receptor); host or cells: U1242 MG glioma cells
T1 sequence (P09619 33-1106): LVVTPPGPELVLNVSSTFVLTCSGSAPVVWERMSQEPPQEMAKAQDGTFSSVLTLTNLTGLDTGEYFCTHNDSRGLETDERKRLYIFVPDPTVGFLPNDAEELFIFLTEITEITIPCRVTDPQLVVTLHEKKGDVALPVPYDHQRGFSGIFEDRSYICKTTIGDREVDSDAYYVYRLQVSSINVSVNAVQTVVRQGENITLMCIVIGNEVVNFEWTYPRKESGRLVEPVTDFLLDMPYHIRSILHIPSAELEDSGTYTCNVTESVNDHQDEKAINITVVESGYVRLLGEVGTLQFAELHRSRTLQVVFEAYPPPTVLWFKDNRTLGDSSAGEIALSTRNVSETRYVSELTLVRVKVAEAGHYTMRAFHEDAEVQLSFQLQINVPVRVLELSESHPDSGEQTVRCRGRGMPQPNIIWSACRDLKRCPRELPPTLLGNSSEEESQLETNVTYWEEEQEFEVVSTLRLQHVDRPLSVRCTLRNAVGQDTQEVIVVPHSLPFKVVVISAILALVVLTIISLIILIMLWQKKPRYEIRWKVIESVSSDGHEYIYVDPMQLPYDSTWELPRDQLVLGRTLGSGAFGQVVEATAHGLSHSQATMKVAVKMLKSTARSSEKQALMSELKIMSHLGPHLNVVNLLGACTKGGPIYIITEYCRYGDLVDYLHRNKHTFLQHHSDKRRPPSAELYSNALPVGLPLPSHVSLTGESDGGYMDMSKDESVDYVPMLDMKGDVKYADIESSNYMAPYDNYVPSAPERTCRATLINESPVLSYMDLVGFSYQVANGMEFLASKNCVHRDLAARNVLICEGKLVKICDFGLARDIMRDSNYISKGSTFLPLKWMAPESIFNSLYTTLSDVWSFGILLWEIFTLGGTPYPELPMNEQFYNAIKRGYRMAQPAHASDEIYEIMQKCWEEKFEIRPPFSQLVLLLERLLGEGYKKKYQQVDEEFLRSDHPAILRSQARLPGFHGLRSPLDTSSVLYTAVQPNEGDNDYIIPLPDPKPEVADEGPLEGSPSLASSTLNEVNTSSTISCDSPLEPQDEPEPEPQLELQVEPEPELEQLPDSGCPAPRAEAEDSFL
Method: (§1) For western blotting, cells were plated in 2 mL growth medium into 6-well dishes (500,000 cells per well) and allowed to attach overnight. […] The plates were then incubated overnight at 37° C., ambient CO2. […] After a 7 min incubation at room temperature with ligand, the plates were put on ice and washed three times with 1 mL ice-cold PBS plus 1 mM orthovanadate. Lysis was achieved by pipetting cells in 0.5 mL of buffer containing 50 mM Tris, pH 7.4, 10% glycerol, 1% NP-40, 2 mM EDTA, 1 mM sodium vanadate (Na3 VO4), 10 mM pyrophosphate, 1 mM PMSF, […]. A 300 μL aliquot of each lysate was immediately added to 100 μL 4×Laemmli sample buffer ([…] Tris pH 6.9, 20% glycerol, 7% SDS, 5 mM EDTA, 5% β-mercaptoethanol) containing phosphatase inhibitors, 2 mM Na3 VO4 and 10 mM pyrophosphate. Samples were boiled for 5 min, frozen in dry ice-ethanol, and stored at -80° C. […] The integrity of the protein-to-membrane transfer was determined by staining with 1% Ponceau S in 5% acetic acid for 5 min. After destaining in several distilled water rinses, the membrane was soaked overnight in blocking buffer containing 5% milk in Tris-buffered saline, 0.05% Tween 20. Phosphotyresine was detected by incubating the membrane (1 hr at room temperature) with an anti-phosphotyosine antiserum diluted in blocking buffer at 1:3000. […] The antibodies were visualized using ECL reagent from Amersham and by exposure to Fuji RX film.
(§2) For ELISA assays, cells were grown to 80-90% confluency in growth medium and seeded in 96-well tissue culture plates in 0.5% serum at 25,000 to 30,000 cells per well. After overnight incubation in 0.5% serum-containingmedium, cells were changed to serum-free medium and treated with test compound for 2 hr in a 5% CO2, 37° C. incubator. […] Lysates were incubated with shaking for 1 hr at room temperature. The plates were washed with TBST four times and then incubated with polyclonol anti-phosphotyrosine antibody at room temperature for 30 min. Excess anti-phosphotyrosine antibody was removed by rinsing the plate with TBST four times. Goat anti-rabbit IgG antibody was added to the ELISA plate for 30 min at room temperature followed by rinsing with TBST four more times.
PDGF-R activity, C6 SRB, and in vivo efficacy were measured using the procedures described in the appendices above.

[2] = LD10; conditions: in vivo
[3] = tested on: C6 glioma cells; test: C6 glioma SC xenograft in mice; assay type: in vivo
Method: (§3) Cell lines were grown in appropriate medium (see Appendix 1). Cells were harvested at or near confluency with 0.05% Trypsin-EDTA and pelleted at 450×g for 10 min. Pellets were resuspended in sterile PBS or media (without FBS) to a particular concentration and the cells were implanted into the hindflank of mice. Tumor growth was measured over 3 to 6 weeks using venier calipers. Tumor volumes were calculated as a product of length×width×height unless otherwise indicated. P values were calculated using the Students' t-test.
(§4) C6 and SKOV-3(T) cells were grown in culture, as described in "cell growth" above, and implanted into the hind flank of a female Balb/c nu/nu mouse at 3×10^6 cells (for C6 experiments), or 1×10^7 cells (for SKOV-3 experiments) in […] of PBS on Day 0. U87MG, U118MG or U373MG human glioblastoma cells (obtained from the ATCC), or A4312 were also implanted into athymic mice. […] Tumors were measured using venier calipers and tumor volume was calculated as a product of tumor length, width, and height.

[4] = C6 glioma SC xenograft in mice; assay type: in vivo; conditions: rat, in vivo, ip
Method: as §3, §4

[5] = biological target: PDGFR (Homo sapiens, UniProt P09619); test: PDGF-stimulated receptor phosphorylation in U1242 cells, ELISA; assay type: cell-based; design: U1242 (PDGF-β receptor); host or cells: U1242 MG glioma cells; conditions: 100 ng/ml PDGF-BB; read-out: ELISA P-TYR U1242 IC50
Sequence of PDGFR (Homo sapiens, UniProt P09619) (P09619 33-1106): as above
Method: as §2, with “incubator. Cells were then stimulated with ligand for 5-10 min followed by lysis with HNTG (20 mM Hepes, 150 mM NaCl, 10% glycerol, 5 mM EDTA, 5 mM Na3 VO4 0.2% Triton X-100, and 2 mM NaPyr).” for “incubator.”
U1242 MG cells were plated in 96-well plates at a concentration of 5×10^4 cells/well in cultured media containing 0.5% FBS. The cells were incubated for 24 hours. The cells were then treated with a particular compound for 2 hours followed by the addition of 100 ng/ml PDGF-BB and incubation for 10 minutes.
Cells were lysed in 0.2 M Hepes, 0.15 M NaCl, 10% V/V glycerol, 0.04% Triton X-100, 5 mM EDTA, 5 MM Na^+ vanadate and […] Na^+ pyrophosphate. Cell lysates were then added to an ELISA plate coated with an anti-PDGF receptor antibody (Genzyme). ELISA plates were coated at […] of antibody/well in […] of PBS for 18 hours at 4° C. prior to the addition of the lysate.
The lysate was incubated in the coated plates for 1 hour and then washed four times in TBST (35 mM Tris-HCl pH 7.0, 0.15 M NaCl, 0.1% Triton X-100). Anti-phosphotyrosine antibody ([…] in PBS) was added and the mixture was incubated for 30 minutes at room temperature. The wells were then washed four times in TBST, a secondary antibody conjugated to POD (TAGO) was added to each well, and the treated wells were incubated for 30 minutes at room temperature. The wells were then washed four times in TBST, ABTS/H2 O2 solution was added to each well and the wells were incubated for two minutes. Absorbance was then measured at 410 nm.

[6] = tested on: U1242 cells; test: Cytotoxicity in U1242 cells, LDH; assay type: cell-based; conditions: Homo sapiens, read-out: CYTOXICITY LDH U1242 LD50; heading: CYTOXICITY LDH U1242 LD50
Method: (§5) The cytotoxicity of each drug was also determined. The cells were plated as described above. Following incubation with drug, cell survival was measured by an MTT assay as described by Mossman J. Immunol. Methods 65:55-63 (1983), or by measuring the amount of LDH released (Korzeniewski and Callewaert, J. Immunol. Methods 64:313 (1983); Decker and Lohmann-Matthes, J. Immunol. Methods 115:61 (1988) .

[7] = tested on: C6 cells; test: C6 SRB growth assay; assay type: cell-based, rat; conditions: Rattus norvegicus, C6; read-out: C6 SRB IC50
[8] = tested on: U1242 cells; test: Cytotoxicity in U1242 cells, MTT; assay type: cell-based, human; conditions: Homo sapiens, read-out: CYTOXICITY MTT U1242 LD50; heading: CYTOXICITY MTT U1242 LD50
Method: as §5

[9] = tested on: PDGF α-receptor; conditions: high concentrations; cited from earlier work
[10] = tested on: PDGF β-receptor; conditions: cited from earlier work
[11] = tested on: PDGF receptor; conditions: cited from earlier work
[12] = tested on: PDGFR; test: Receptor tyrosine kinase inhibition, PDGFR; assay type: cell-based; conditions: W = done in Western assay; read-out: PDGFR IC50 (W)
Method: as §1, §2
The ability of different compound to inhibit different receptor tyrosine kinases was tested.

[13] = tested on: A431 cells; conditions: cited from earlier work
[14] = tested on: Platelet-derived growth factor-dependent tyrosine phosphorylation; conditions: intact cells; cited from earlier work
[15] = W = done in Western assay, read-out: U1242 KINASE IC50 (W)

Compound: O=C(c1ccccc1)c1ccc2ncc(-c3ccccc3)nc2c1 [Compound G21]
IC50 [1, 15]: 6 µM | IC50 ([1]; read-out: U1242 KINASE IC50): > 50 µM | LD10 [2]: > 200 mg/kg | C6 in vivo EFFICACY ([3]; at 40 mg/kg): no effect | mortality ([4]; 40 mg/kg): 0% | IC50 [5]: 6 µM | CC50 [6]: > 100 µM | IC50 [7]: > 12 µM

Compound: O=C(NN=Cc1ccc(O)c(O)c1)C(=O)Nc1cccc([N+](=O)[O-])c1 [Compound E15]
IC50 [1, 15]: 5 µM and 10 µM | IC50 ([1]; read-out: U1242 KINASE IC50): > 50 µM | LD10 [2]: > 400 mg/kg | CC50 [8]: > 100 µM | inhibition in vivo at 15 mg/kg ([3]; Rattus norvegicus, C6 glioma, sc, at 15 mg/kg, read-out: C6 in vivo EFFICACY): 66% | inhibition in vivo at 50 mg/kg ([3]; Rattus norvegicus, C6 glioma, sc, at 50 mg/kg, read-out: C6 in vivo EFFICACY): 58% | inhibition in vivo at 100 mg/kg ([3]; Rattus norvegicus, C6 glioma, sc, at 100 mg/kg, read-out: C6 in vivo EFFICACY): 0% | mortality at 336 h ([4]; 15 mg/kg): 0% | mortality at 360 h ([4]; 50 mg/kg): 12.5% | mortality at 192 h ([4]; 100 mg/kg): 100% | IC50 [5]: 5 µM | IC50 [7]: 4.4 µM

Compound: neomycin
binding of PDGF-BB to the α-receptor [9]: inhibited the binding of PDGF-BB to the α-receptor | binding of PDGF-BB to the β-receptor [10]: did not inhibit binding to the β-receptor

Compound: Cc1ccc(C(=O)Nc2ccc(S(=O)(=O)O)c3cc(S(=O)(=O)O)cc(S(=O)(=O)O)c23)cc1NC(=O)c1cccc(NC(=O)Nc2cccc(C(=O)Nc3cc(C(=O)Nc4ccc(S(=O)(=O)O)c5cc(S(=O)(=O)O)cc(S(=O)(=O)O)c45)ccc3C)c2)c1 [suramin]
receptor binding [11]: interfere with receptor binding

IC50 [5]: 15 µM | IC50 [12]: 20 µM
Compound: COc1cc2nc(Cl)c(-c3ccccc3)cc2c(OC)c1OC [Compound G11]
CC50 [6]: 90 µM

IC50 [5]: 35 µM
Compound: N#CC(C(=O)Nc1ccc(C(F)(F)F)cc1)=C(O)c1cccc(Oc2ccccc2)c1 [Compound B16, 2-Propenamide, 2-cyano-3-hydroxy-3-((3-phenoxy)phenyl)-N-[(4-trifluoromethyl)phenyl]]
CC50 [8]: 50 µM

IC50 [5]: 35 µM
Compound: c1ccc(-c2cnc3ncccc3n2)cc1 [Compound G16]
CC50 [8]: > 100 µM

Compound: CC(O)=C(C#N)C(=O)Nc1ccc(C(F)(F)F)cc1 [A77 1726]
growth of A431 cells [13]: inhibited growth of A431 cells | Platelet-derived growth factor-dependent tyrosine phosphorylation [14]: inhibited by A77 1726 in intact cells at concentrations similar to EGF-dependent phosphorylation
